Assay results: article PMC10708540, “Determination and Kinetic Characterization of a New Potential Inhibitor for AmsI Protein Tyrosine Phosphatase from the Apple Pathogen Erwinia amylovora” (Molecules, 2023)

Key:
[1] = tested on: O=[N+]([O-])c1ccc(OP(=O)(O)O)cc1; test: purified protein
[2] = target: T1, EaAmsI (AmsI, Low Molecular Weight Protein Tyrosine Phosphatase) (Erwinia amylovora, UniProt Q46630); test: pNPP hydrolysis at […] nm, Michaelis-Menten global fit with competitive inhibition model; type: biochemical
T1 construct: recombinant EaAmsI (gene from strain Ea273, pETM-11 vector)

[3] = target: T1, EaAmsI (AmsI, Low Molecular Weight Protein Tyrosine Phosphatase); test: pNPP hydrolysis, dose-response IC50; type: biochemical

T1 sequence (Q46630 whole entry): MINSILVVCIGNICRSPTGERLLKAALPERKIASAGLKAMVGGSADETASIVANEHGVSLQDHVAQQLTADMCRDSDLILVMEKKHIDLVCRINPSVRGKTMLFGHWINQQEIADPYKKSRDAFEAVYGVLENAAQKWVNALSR

With “EaAmsI (AmsI, Low Molecular Weight Protein Tyrosine Phosphatase) (Erwinia amylovora)” as the compound, how does the Km [1] read?
The Km was 15.1 ± 1.3 mM.

With `CCCCCCCO[C@@H]1O[C@H](CO)[C@@H](O)[C@H](O)[C@H]1O` [N7G, (2R,3R,4S,5S,6R)-2-(heptyloxy)-6-(hydroxymethyl)oxane-3,4,5-triol] as the compound, how does the Ki [2] read?
The Ki was 0.0078 ± 0.0006 mM.

How did the IC50 [3] turn out when `CCCCCCCCO[C@@H]1O[C@H](CO)[C@@H](O)[C@H](O)[C@H]1O` [N8G, (2R,3S,4S,5R,6R)-2-(hydroxymethyl)-6-(octyloxy)oxane-3,4,5-triol] was run?
The IC50 was 9.5 ± 1.3 mM.
